Reference: patent US9688653B2, “Ethoxyphenyl thienyl compounds and methods for the treatment of bacterial infections” (Duke University, priority 2013, dated 2017)

Assays:
Plasma stability, mouse = format: in vitro ADME; conditions: 1:1 Plasma:PBS, 37° C.
[1] = Hepatic microsome stability, human; format: in vitro ADME; conditions: 37° C.

Structure (SMILES): CCOc1ccc(-c2cc(NC(=O)c3c(F)cccc3F)c(C(=O)O)s2)cc1 [ML317, 3-(2,6-difluorobenzamido)-5-(4-ethoxyphenyl)thiophene-2-carboxylic acid]
- Plasma Stability, % remaining at 3 hr (Plasma stability, mouse): 78.4 % remaining
- Hepatic Microsome Stability, % remaining at 1 hr [1]: 89.6 % remaining
